Laboratory results published in patent US20020068367A1, “Linker and method for solid phase combinatorial synthesis” (priority 2000, published 2002).
Several values for one entry are separate records, joined by “and”; a condition that tells them apart may be missing. Equal values may be shown once.

Biological target: T1, fluorescein-streptavidin (Streptomyces avidinii, UniProt P22629)
T1 construct: purchased Calbiochem-Novabiochem Corp., La Jolla, Calif; 189734
Test: Standard protein-binding assay: fluorescein-streptavidin binding to linker on streptavidin-coated 96-well plates
From the text: Referring to the drawings, and particularly to FIG. 1, generic reactions illustrating two variations of the screening system of the present invention are shown. FIGS. 1a-1d illustrate the generic System 1 reaction wherein a compound comprised of a tether connecting biotin with a chemical compound containing a nitrophenyl group is applied to a streptavidin coated solid phase. The amount of fluorescein-protein complex (c), where the exemplary protein is fluorescein-anti-DNP antibody, bound to the biotin-tether-nitrophenyl complex is characterized by detecting the magnitude of fluorescence emission in each individual well at the completion of the reaction. Similarly, FIG. 1e-1h illustrates the generic System 2 reaction wherein a tether connects 2 biotin groups together and streptavidin is coated on the solid phase. As in the System 1 reaction, the amount of fluorescein-protein complex (g), where the exemplary protein is fluorescein-streptavidin, bound to the biotin-tether-biotin complex is characterized through the detection of fluorescence emissions in each individual well at the completion of the reaction.
In the quantification of the interaction between fluoresceinated-proteins and linkers is characterized by detecting the magnitude of fluorescence emissions in each individual well at the completion of standard protein-binding assay procedures.
A standard protein-binding assay comprises a multi-step process in which strepeavidin pre-treated 96-well plates are exposed to a solution containing linker followed by exposure to a solution containing fluorescein-labeled protein. The 96-well plates are coated with a commercially available streptavidin solution (cat #BPS00100; Xenopore Corp., Hawthorne, N.J.) and then pre-incubated with 300 μl PBS buffer for 10 minutes at room temperature. To complete the pre-incubation process, the PBS buffer is discarded and the plates are further washed five times with water. Once the plate is sufficiently washed, add to the wells 100 μl of pre-mixed binding buffer containing the desired linker, the preparation of which is as described above. After addition of the linker solution, the plate is incubated at 37° C. for one hour. Upon completion of incubation, the linker solution is discarded and the plate is washed with five changes of water. For the fifth step of the assay process, 100 μl of a premixed reaction solution containing 1 M Tris, 0.5 M NaCl and the fluorescein-labeled proteins are added to selected wells of the plate with bound linker. The fluorescein conjugated proteins, anti-dinitrophenyl antibody (rabbit IgG fraction, cat #A-6423) (anti-DNP) and streptavidin (cat #189734) are commercially available from Molecular Probes, Inc., Eugene, Oreg. and Calbiochem Inc., San Diego, Calif. Upon addition of the protein solutions, the plate is further incubated at 37° C. for one hour. Following the incubation period, the reacting solution in each well is discarded and the wells are washed with five changes of 1 M Tris or 30 changes of water. After this final washing step, 250 μl of elution buffer containing 0.5 mM NaOH, methanol and 20 mM EDTA is added to each well and the plate is read using a Spectra MAX Gemini fluorescein plate reader (Molecular Devices Corp., Sunnyvale, Calif.).
Using the standard protein-binding assay described above, linkers 1-7 are evaluated for their ability to bind fluorescein-streptavidin or fluorescein-anti-DNP. The detection of fluorescence emission beyond that of the control would indicate that the fluorescein labeled protein has bound to the corresponding linker. Lack of fluorescence emission would indicate that either the linker or the fluorescein-bound proteins are absent, or that an improper linker was used. This may be interpreted as meaning that the protein of interest, in this exemplary example streptavidin or anti-DNP, “recognizes” the particular library compound being used in the experiment. […]

[1] = Table 5, linker 3 50 nmol, streptavidin-fluorescein 100 pmol
[2] = [Linker] 3 2.5 nmol, fluorescein-streptavidin 100 pmol
[3] = [Linker] 3 5.0 nmol, fluorescein-streptavidin 100 pmol
[4] = [Linker] 3 25.0 nmol, fluorescein-streptavidin 100 pmol
[5] = [Linker] 3 50.0 nmol, fluorescein-streptavidin 100 pmol
[6] = [Linker] 3 250.0 nmol, fluorescein-streptavidin 100 pmol
[7] = [Linker] 3 500.0 nmol, fluorescein-streptavidin 100 pmol
[8] = [Linker] 3 2500.0 nmol, fluorescein-streptavidin 100 pmol
[9] = [Linker] 3 5000.0 nmol, fluorescein-streptavidin 100 pmol
[10] = linker 3 50 nmol, [STREP] 0 pmol (linker only)
[11] = linker 3 50 nmol, [STREP] 0.15 pmol
[12] = linker 3 50 nmol, [STREP] 0.3 pmol
[13] = linker 3 50 nmol, [STREP] 1.0 pmol
[14] = linker 3 50 nmol, [STREP] 3.0 pmol
[15] = linker 3 50 nmol, [STREP] 15.0 pmol
[16] = linker 3 50 nmol, [STREP] 30.0 pmol
[17] = linker 3 50 nmol, [STREP] 45.0 pmol
[18] = linker 3 50 nmol, [STREP] 60.0 pmol

T1 sequence (P22629 25-183): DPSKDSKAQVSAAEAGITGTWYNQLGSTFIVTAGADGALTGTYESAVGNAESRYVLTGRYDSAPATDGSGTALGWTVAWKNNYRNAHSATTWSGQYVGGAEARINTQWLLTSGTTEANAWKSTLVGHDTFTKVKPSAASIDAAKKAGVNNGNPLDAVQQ

O=C(CCCCCNC(=O)CCCCCNC(=O)CCCCC1SCC2NC(=O)NC21)NCCCCCNC(=O)CCCCCNC(=O)CCCCC1SCC2NC(=O)NC21 (stereo not drawn) [Linker 3]
Increase in fluorescence emission (100-fold increase in linker 3 concentration (0.5 nmol to 50 nmol)): no significant increase
Increase in fluorescence emission (100-fold increase in linker concentration at much higher concentrations of linker 3): 2 fold
Fluorescence emission, mean of Columns 1-3 [1]: 479.29
Fluorescence emission, sum of Columns 1-2 [1]: 987.05
Fluorescence emission, sum of Columns 1-3 [1]: 1437.9
Fluorescence emission (Table 5, linker 3 50 nmol, streptavidin-fluorescein 100 pmol, replicates): 492.22 and 494.83 and 450.81
Detected fluorescence emission (Well #1, linker 3 50 nmol, streptavidin-fluorescein 100 pmol): about 500
Fluorescence emission, mean of Columns 1-3 [2]: 181.30
Fluorescence emission, sum of Columns 1-2 [2]: 406.14
Fluorescence emission, sum of Columns 1-3 [2]: 543.91
Fluorescence emission ([Linker] 3 2.5 nmol, fluorescein-streptavidin 100 pmol, replicates): 230.68 and 175.46 and 137.77
Fluorescence emission, mean of Columns 1-3 [3]: 193.80
Fluorescence emission, sum of Columns 1-2 [3]: 467.1
Fluorescence emission, sum of Columns 1-3 [3]: 581.41
Fluorescence emission ([Linker] 3 5.0 nmol, fluorescein-streptavidin 100 pmol, replicates): 239.14 and 227.96 and 114.31
Fluorescence emission, mean of Columns 1-3 [4]: 211.91
Fluorescence emission, sum of Columns 1-2 [4]: 469.52
Fluorescence emission, sum of Columns 1-3 [4]: 635.73
Fluorescence emission ([Linker] 3 25.0 nmol, fluorescein-streptavidin 100 pmol, replicates): 223.84 and 245.68 and 166.21
Fluorescence emission, mean of Columns 1-3 [5]: 280.99
Fluorescence emission, sum of Columns 1-2 [5]: 502.51
Fluorescence emission, sum of Columns 1-3 [5]: 782.96
Fluorescence emission ([Linker] 3 50.0 nmol, fluorescein-streptavidin 100 pmol, replicates): 226.70 and 275.81 and 280.45
Fluorescence emission, mean of Columns 1-3 [6]: 313.49
Fluorescence emission, sum of Columns 1-2 [6]: 597.65
Fluorescence emission, sum of Columns 1-3 [6]: 940.47
Fluorescence emission ([Linker] 3 250.0 nmol, fluorescein-streptavidin 100 pmol, replicates): 261.21 and 336.44 and 342.82
Fluorescence emission, mean of Columns 1-3 [7]: 352.86
Fluorescence emission, sum of Columns 1-2 [7]: 703.68
Fluorescence emission, sum of Columns 1-3 [7]: 1058.6
Fluorescence emission ([Linker] 3 500.0 nmol, fluorescein-streptavidin 100 pmol, replicates): 325.94 and 377.74 and 354.91
Fluorescence emission, mean of Columns 1-3 [8]: 457.81
Fluorescence emission, sum of Columns 1-2 [8]: 920.68
Fluorescence emission, sum of Columns 1-3 [8]: 1373.4
Fluorescence emission ([Linker] 3 2500.0 nmol, fluorescein-streptavidin 100 pmol, replicates): 474.19 and 446.49 and 452.76
Fluorescence emission, mean of Columns 1-3 [9]: 440.22
Fluorescence emission, sum of Columns 1-2 [9]: 883.57
Fluorescence emission, sum of Columns 1-3 [9]: 1320.7
Fluorescence emission ([Linker] 3 5000.0 nmol, fluorescein-streptavidin 100 pmol, replicates): 447.77 and 435.80 and 437.09
Effect on binding capacity of fluorescein-streptavidin (generic System 2): significantly enhances the binding capacity
Fluorescence emission (linker 3 0.5 nmol, fluorescein-streptavidin 100 pmol): 239.14
Fluorescence emission, mean of Columns 1-3 [10]: 150.00 and 142.49
Fluorescence emission, sum of Columns 1-2 [10]: 311.12 and 280.3
Fluorescence emission, sum of Columns 1-3 [10]: 450.01 and 427.46
Fluorescence emission (linker 3 50 nmol, [STREP] 0 pmol (linker only), replicates): 158.28 and 152.84 and 138.89 and 156.28 and 124.02 and 147.16
Fluorescence emission, mean of Columns 1-3 [11]: 147.68
Fluorescence emission, sum of Columns 1-2 [11]: 276.44
Fluorescence emission, sum of Columns 1-3 [11]: 443.03
Fluorescence emission (linker 3 50 nmol, [STREP] 0.15 pmol, replicates): 110.75 and 110.57 and 165.87 and 166.59
Fluorescence emission, mean of Columns 1-3 [12]: 129.73
Fluorescence emission, sum of Columns 1-2 [12]: 226.97
Fluorescence emission, sum of Columns 1-3 [12]: 389.19
Fluorescence emission (linker 3 50 nmol, [STREP] 0.3 pmol, replicates): 72.275 and 154.69 and 162.22
Fluorescence emission, mean of Columns 1-3 [13]: 197.16
Fluorescence emission, sum of Columns 1-2 [13]: 389.28
Fluorescence emission, sum of Columns 1-3 [13]: 591.47
Fluorescence emission (linker 3 50 nmol, [STREP] 1.0 pmol, replicates): 167.36 and 221.92 and 202.19
Fluorescence emission, mean of Columns 1-3 [14]: 253.59
Fluorescence emission, sum of Columns 1-2 [14]: 542.04
Fluorescence emission, sum of Columns 1-3 [14]: 760.78
Fluorescence emission (linker 3 50 nmol, [STREP] 3.0 pmol, replicates): 237.61 and 304.43 and 218.74
Fluorescence emission, mean of Columns 1-3 [15]: 257.02
Fluorescence emission, sum of Columns 1-2 [15]: 482.28
Fluorescence emission, sum of Columns 1-3 [15]: 771.07
Fluorescence emission (linker 3 50 nmol, [STREP] 15.0 pmol, replicates): 220.15 and 262.13 and 288.79
Fluorescence emission, mean of Columns 1-3 [16]: 326.19
Fluorescence emission, sum of Columns 1-2 [16]: 601.80
Fluorescence emission, sum of Columns 1-3 [16]: 978.58
Fluorescence emission (linker 3 50 nmol, [STREP] 30.0 pmol, replicates): 395.67 and 206.13 and 376.78
Fluorescence emission, mean of Columns 1-3 [17]: 474.38
Fluorescence emission, sum of Columns 1-2 [17]: 994.49
Fluorescence emission, sum of Columns 1-3 [17]: 1423.2
Fluorescence emission (linker 3 50 nmol, [STREP] 45.0 pmol, replicates): 454.46 and 540.03 and 428.66
Fluorescence emission, mean of Columns 1-3 [18]: 463.43
Fluorescence emission, sum of Columns 1-2 [18]: 959.13
Fluorescence emission, sum of Columns 1-3 [18]: 1390.3
Fluorescence emission (linker 3 50 nmol, [STREP] 60.0 pmol, replicates): 548.75 and 410.38 and 431.15
Increase in fluorescence emission (linker 3, 100-fold increase in fluorescein-streptavidin concentration (0.15 to 15 pm)): 2 fold
